Laboratory results taken from patent US20110016579A1, “Gene of transporter selective to mugineic acid-iron complex” (SUNTORY LIMITED, priority 2005, published 2011).

Columns and labels:
[1] = tested on: HvYS1; assay: Growth of fet3fet4 yeast (DDY4 strain) expressing HvYS1 on different iron sources; type: cell-based, barley (Hordeum vulgare L.); conditions: 30° C., 4 days
Text: Since DDY4 strain is an yeast that is defective in the divalent iron-absorption system, is unable to grow in an iron-limiting medium (Eide, D. et al., Proc. Natl. Acad. Sci. USA, 1996, vol. 93, pp. 5624-5628) and is unable to grow by taking advantage of mugineic acid-iron (III) complex (Loulergue, C., Gene 1998, vol. 225, pp. 47-57), the yeast having an activity power for selectively absorbing mugineic acid-iron complex can grow on a medium supplemented with mugineic acid-iron(III) complex but the yeast having no above-mentioned activity power cannot grow on the medium.
(§1) Since double mutant fet3fet4 (DDY4 strain) of budding yeast (Saccharomyces cerevisiae) is defective in two genes responsible for absorption of divalent iron (fet3 (a gene for absorbing divalent iron after converting trivalent iron into divalent iron) and fet4 (a gene for absorbing divalent iron as it is)), the yeast can grow neither on an iron-limiting medium (Eide, D. et al., Proc. Natl. Acad. Sci. USA, 1996, vol. 93, pp. 5624-5628) nor by taking advantage of iron complexed with mugineic acid (Loulergue, C., Gene, 1998, vol. 225, pp. 47-57). To investigate the function of HvYS1 in iron transport, the present inventors have studied, using DDY4 strain into which HvYS1 cDNA has been introduced, whether the DDY4 strain in which the gene is expressed is able to grow on a medium containing Fe(III).MA as sole source of iron.
(§2) The following three plasmids were independently introduced into each of DDY4 strain and DY1457 (wild) strain: (1) a plasmid into which HvYS1 cDNA cloned at the NotI site of the expression vector pFL61 (by ATCC Co.) was inserted; (2) a plasmid into which ZmYS1 cDNA (Curie, C. et al., Nature, 2001, vol. 49, pp. 346-349) cloned in the same pFL61 vector was inserted; and (3) the pFL61 vector as a reference into which none of the above-mentioned genes was inserted.
Subsequently, the inventors conducted cultivation tests by mixing three different iron sources, or Fe(III).citrate, Fe(III).MA, and Fe(III).NA, with the medium in order to determine substrate selectivity, if any, of HvYS1. The yeast was cultivated in minimum media—Ura supplemented with 50 μM Fe(III).citrate, 10 μM Fe(III).MA, or 10 μM Fe(II).NA, and 10 μM FeCl2 or FeCl3 as a blank. Also, 10 μM of BPDS that is a potent chelating agent of divalent iron was added to the medium supplemented with 10 μM of Fe(III).MA in order to investigate whether the growth of the yeast is inhibited. Fe(III).MA was prepared according to von Wiren, N. et al. , Biochem. Biophys. Acta, 1998, vol. 1371, pp. 143-155. Nicotinamine was purchased from T. Hasegawa Co., and Fe(II).NA was prepared according to Schaaf, G. et al. , J. Biol. Chem., 2004, vol. 279, pp. 9091-9096. The yeast was cultivated at 30° C. for 4 days. Three solutions of the yeast culture (diluted to optical densities (OD) of 0.2, 0.02 and 0.002, respectively, at a wavelength of 600 nm) were spotted on a plate.

[2] = tested on: HvYS1; assay: Electrophysiological activity (voltage clamp) in HvYS1-expressing Xenopus oocyte cells; type: cell-based, barley (Hordeum vulgare L.); conditions: final concentration of 50 μM, fixed voltage of −60 mV; compared with other mugineic acid-metal complexes and nicotianamine Fe(II) complex
Text: The activity power for selectively absorbing mugineic acid-iron complex may be also confirmed by observing cell membrane voltage changes using Xenopus oocyte cells. The voltage change of the cell membrane may be obtained by directly measuring the voltage difference between the inside and outside of the cell membrane by, for example, a membrane voltage clamp method, wherein the voltage change of the oocyte cell membrane occurs in accordance with the absorption of mugineic acid-iron complex via the transporter protein expressed in the oocyte cell after adding a solution containing mugineic acid-iron complex to the oocyte cell into which the transporter gene of the invention has been introduced. […]
Subsequently, the inventors have formed mugineic acid complexes of copper, zinc, nickel, manganese, and cobalt as substrates other than Fe(III).MA as in the case of iron in order to determine substrate selectivity, if any, of HvYS1 protein. The oocyte cells in which HvYS1 is expressed were set in a chamber filled with the ND-96 solution, and electrophysiological activity was measured after spraying 10 μL of each 5 mM substrate (final concentration of 50 μM). […] ORIGIN 6.1 software (by Microcal Software Co.) was used for programming and storage of voltage, and analysis of the recorded and stored data. […]
Target sequence in this assay (as listed by the source): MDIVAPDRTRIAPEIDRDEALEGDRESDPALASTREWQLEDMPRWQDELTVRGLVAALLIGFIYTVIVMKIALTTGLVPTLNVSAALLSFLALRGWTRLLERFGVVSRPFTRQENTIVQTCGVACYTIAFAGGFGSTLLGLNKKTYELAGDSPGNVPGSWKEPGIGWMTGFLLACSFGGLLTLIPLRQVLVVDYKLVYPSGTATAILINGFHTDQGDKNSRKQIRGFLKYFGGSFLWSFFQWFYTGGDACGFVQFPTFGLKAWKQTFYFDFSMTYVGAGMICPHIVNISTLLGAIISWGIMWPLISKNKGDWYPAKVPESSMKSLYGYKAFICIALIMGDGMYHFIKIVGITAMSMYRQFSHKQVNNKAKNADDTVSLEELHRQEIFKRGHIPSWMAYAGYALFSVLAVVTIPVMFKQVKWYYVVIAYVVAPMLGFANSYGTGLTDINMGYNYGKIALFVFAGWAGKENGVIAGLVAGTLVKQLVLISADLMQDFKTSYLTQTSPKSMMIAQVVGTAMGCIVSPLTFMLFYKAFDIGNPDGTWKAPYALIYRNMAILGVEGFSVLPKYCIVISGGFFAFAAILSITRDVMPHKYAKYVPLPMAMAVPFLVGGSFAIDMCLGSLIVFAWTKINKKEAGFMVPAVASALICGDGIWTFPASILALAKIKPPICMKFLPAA

[3] = biological target: T1, ZmYS1 (Zea mays, UniProt Q9AY27); assay: Growth of fet3fet4 yeast (DDY4 strain) expressing ZmYS1 on different iron sources; type: cell-based, maize; conditions: DDY4 strain expressing ZmYS1, 10 μM, FIG. 3
T1 construct: expressed in transfected cells; host or cells: Saccharomyces cerevisiae fet3fet4 double mutant (DDY4 strain), vector pFL61
T1 sequence (Q9AY27 1-682): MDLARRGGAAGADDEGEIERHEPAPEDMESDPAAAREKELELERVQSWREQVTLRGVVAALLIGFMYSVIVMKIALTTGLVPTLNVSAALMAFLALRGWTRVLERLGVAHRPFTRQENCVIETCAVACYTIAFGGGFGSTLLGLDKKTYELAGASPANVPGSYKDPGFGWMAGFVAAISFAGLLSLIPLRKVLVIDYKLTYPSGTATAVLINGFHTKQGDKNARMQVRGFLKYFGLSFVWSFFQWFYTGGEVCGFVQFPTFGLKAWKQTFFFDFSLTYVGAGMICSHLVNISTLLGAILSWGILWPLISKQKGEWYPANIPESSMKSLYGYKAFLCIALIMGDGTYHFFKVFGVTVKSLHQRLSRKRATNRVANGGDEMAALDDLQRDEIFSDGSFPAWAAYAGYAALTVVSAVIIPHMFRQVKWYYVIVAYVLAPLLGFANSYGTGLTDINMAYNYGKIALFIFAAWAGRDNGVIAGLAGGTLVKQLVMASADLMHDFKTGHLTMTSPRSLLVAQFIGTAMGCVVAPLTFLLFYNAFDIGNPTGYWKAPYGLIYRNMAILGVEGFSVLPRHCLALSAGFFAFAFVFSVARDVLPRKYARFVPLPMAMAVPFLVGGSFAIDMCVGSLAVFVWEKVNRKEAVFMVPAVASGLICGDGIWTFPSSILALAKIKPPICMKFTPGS
Text: as §1
as §2, with “inserted. […]” for “inserted.”

| Molecule | growth of DDY4 strain expressing HvYS1 in the presence of BPDS ([1]; 10 μM Fe(III).MA plus 10 μM BPDS (Fe(II) chelating agent)) | growth of DDY4 strain expressing HvYS1 with the substance as sole iron source ([1]; 10 μM in minimum media -Ura) | voltage change in HvYS1-expressing oocyte cells [2] | transport of the iron complex by ZmYS1 [3] | growth of DDY4 strain expressing HvYS1 with the substance as sole iron source ([1]; 50 μM in minimum media -Ura) |
| --- | --- | --- | --- | --- | --- |
| mugineic acid-iron(III) complex [Fe(III).MA] | grew | grew at the same level as DDY4 strain expressing ZmYS1 | overwhelmingly strong voltage change | transports | – |
| [Cl][Fe][Cl] [FeCl2] | – | did not grow | – | – | – |
| citric acid-iron complex (iron-ammonium citrate complex) [Fe(III).citrate] | – | – | – | – | did not grow |
| nicotianamine-iron complex [Fe(II).NA] | – | does not absorb Fe(II).NA, or growth was strongly inhibited | – | transports | – |
| [Cl][Fe]([Cl])[Cl] [FeCl3] | – | did not grow | – | – | – |
